Results: patent US20090253669A1, “Substituted Sulfonamide Compounds” (GRUENENTHAL GmbH, priority 2008, published 2009)

How the values were obtained:
[1] = target: T1, B1R receptor of the rat (rB1R) (Rattus norvegicus, UniProt P97583); assay: FLIPR Ca2+ assay on rB1R-transfected CHO K1 cells, antagonistic action; format: cell-based; conditions: CHO-K1, 10 μM test substance; agonist Des-Arg9-bradykinin 100 nM; % of maximum achievable inhibition; read-out: rB1R [10 μM] % inhibition
T1 construct: host or cells: CHO K1 cells
T1 sequence (P97583 1-337): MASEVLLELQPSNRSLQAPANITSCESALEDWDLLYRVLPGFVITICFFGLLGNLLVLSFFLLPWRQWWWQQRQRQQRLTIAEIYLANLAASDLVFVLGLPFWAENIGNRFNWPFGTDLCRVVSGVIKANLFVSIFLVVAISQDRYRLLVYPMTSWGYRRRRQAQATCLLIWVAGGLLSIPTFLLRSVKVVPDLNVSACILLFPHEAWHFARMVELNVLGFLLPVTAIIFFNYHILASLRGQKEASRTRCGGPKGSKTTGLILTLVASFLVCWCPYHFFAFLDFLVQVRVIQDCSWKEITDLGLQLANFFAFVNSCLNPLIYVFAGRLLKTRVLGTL

[2] = target: T2, human B1R receptor (hB1R) (Homo sapiens, UniProt P46663); assay: FLIPR Ca2+ assay on hB1R-transfected CHO K1 cells, antagonistic action; format: cell-based; conditions: CHO-K1, 10 μM test substance; agonist Lys-Des-Arg9-bradykinin 0.5 nM; % of maximum achievable inhibition; read-out: hB1R [10 μM] % inhibition
T2 construct: host or cells: CHO K1 cells
T2 sequence (P46663 1-353): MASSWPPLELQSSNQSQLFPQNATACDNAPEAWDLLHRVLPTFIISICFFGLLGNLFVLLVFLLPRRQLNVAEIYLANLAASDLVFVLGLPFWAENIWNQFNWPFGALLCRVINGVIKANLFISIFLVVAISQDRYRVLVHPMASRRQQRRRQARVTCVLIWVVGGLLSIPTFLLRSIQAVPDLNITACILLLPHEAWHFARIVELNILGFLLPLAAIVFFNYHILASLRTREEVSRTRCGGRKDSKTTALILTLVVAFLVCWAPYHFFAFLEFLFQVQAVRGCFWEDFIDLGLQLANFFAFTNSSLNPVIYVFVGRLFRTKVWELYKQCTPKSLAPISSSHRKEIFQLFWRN

Structure (SMILES)	inhibition at 10 µM [1]	inhibition at 10 µM [2]
COc1cc(C)c(S(=O)(=O)N2CCCCC2COCC(=O)N(C)CC2CCC(CCc3ccccc3)(N3CCCC3)CC2)c(C)c1 (centres unmarked) [Compound 51, 2-((1-(4-methoxy-2,6-dimethylphenylsulfonyl)piperidin-2-yl)methoxy)-N-methyl-N-((4-phenethyl-4-(pyrrolidin-1-yl)cyclohexyl)methyl)acetamide]	100%	102%
O=C(COCC1CCCN1S(=O)(=O)c1c(Cl)cc(Cl)cc1Cl)NC1CCC(c2ccccc2)(N2CCOCC2)CC1 (centres unmarked) [Compound 164, N-(4-morpholino-4-phenylcyclohexyl)-2-((1-(2,4,6-trichlorophenylsulfonyl)pyrrolidin-2-yl)methoxy)acetamide]	90%	74%
CN(CCCC1CCC(CCc2ccccc2)(N2CCCC2)CC1)C(=O)CC(NS(=O)(=O)c1ccc2ccccc2c1)c1ccccc1 (centres unmarked) [Compound 79, N-methyl-3-(naphthalene-2-sulfonamido)-N-(3-(4-phenethyl-4-(pyrrolidin-1-yl)cyclohexyl)propyl)-3-phenylpropanamide]	99%	102%
CN(CCC1CCC(c2ccccc2)(N(C)C)CC1)C(=O)CC(NS(=O)(=O)c1ccc2ccccc2c1)c1ccccc1 (centres unmarked) [Compound 90, N-(2-(4-(dimethylamino)-4-phenylcyclohexyl)ethyl)-N-methyl-3-(naphthalene-2-sulfonamido)-3-phenylpropanamide]	97%	97%
CN1CCN(C2(c3ccc(F)cc3)CCN(C(=O)CC(NS(=O)(=O)c3ccc4ccccc4c3)c3ccccc3)CC2)CC1 (centres unmarked) [Compound 96, N-(3-(4-(4-fluorophenyl)-4-(4-methylpiperazin-1-yl)piperidin-1-yl)-3-oxo-1-phenylpropyl)naphthalene-2-sulfonamide]	91%	100%
COc1cc(C)c(S(=O)(=O)N(C)CCOCC(=O)N(C)CCC2CCC(CCc3ccccc3)(N(C)C)CC2)c(C)c1 (centres unmarked) [Compound 52, N-(2-(4-(dimethylamino)-4-phenethylcyclohexyl)ethyl)-2-(2-(4-methoxy-N,2,6-trimethylphenylsulfonamido)ethoxy)-N-methylacetamide]	100%	104%
COc1cc(C)c(S(=O)(=O)N2CCCCC2COCC(=O)N(C)CCCC2CCC(c3cccc(F)c3)(N3CCCC3)CC2)c(C)c1 (centres unmarked) [Compound 204, N-(3-(4-(3-fluorophenyl)-4-(pyrrolidin-1-yl)cyclohexyl)propyl)-2-((1-(4-methoxy-2,6-dimethylphenylsulfonyl)piperidin-2-yl)methoxy)-N-methylacetamide]	103%	99%
COc1cc(C)c(S(=O)(=O)N(C)CCOCC(=O)N2CCC(c3cccc(F)c3)(N3CCN(C)CC3)CC2)c(C)c1 [Compound 210, N-(2-(2-(4-(3-Fluorophenyl)-4-(4-methylpiperazin-1-yl)piperidin-1-yl)-2-oxoethoxy)ethyl)-4-methoxy-N,2,6-trimethylbenzenesulfonamide]	101%	100%
O=C(COCC1CCCN1S(=O)(=O)c1c(Cl)cc(Cl)cc1Cl)NC1CCC(Cc2ccccc2)(N2CCCC2)CC1 (centres unmarked) [Compound 156, N-(4-benzyl-4-(pyrrolidin-1-yl)cyclohexyl)-2-((1-(2,4,6-trichlorophenylsulfonyl)pyrrolidin-2-yl)methoxy)acetamide]	100%	76%
CN(C)C1(c2ccccc2)CCC(NC(=O)CC2c3ccccc3CCN2S(=O)(=O)c2ccc(Cl)c(Cl)c2)CC1 (centres unmarked) [Compound 26, 2-(2-(3,4-dichlorophenylsulfonyl)-1,2,3,4-tetrahydroisoquinolin-1-yl)-N-(4-(dimethylamino)-4-phenylcyclohexyl)acetamide]	56%	84%
